In US8030306B2, “Azabicyclic heterocycles as cannabinoid receptor modulators” (Bristol-Myers Squibb Company, priority 2006, dated 2011):
In brackets after ≈: the same amount, converted by molar mass.

Columns and labels:
recombinant human CB-1 = target: T1, recombinant human CB-1 (Homo sapiens, UniProt P21554); assay: Cannabinoid receptor binding assay (radioligand 3H-CP-55,940, CHO-CB-1 membranes); settings: membranes of CHO cells over-expressing recombinant human CB-1, 2 nM 3H-CP-55,940, read-out: CB1 Ki
T1 construct: expressed in transfected cells; host or cells: CHO cells (CHO-CB-1), membrane preparation
T1 sequence (P21554 whole entry): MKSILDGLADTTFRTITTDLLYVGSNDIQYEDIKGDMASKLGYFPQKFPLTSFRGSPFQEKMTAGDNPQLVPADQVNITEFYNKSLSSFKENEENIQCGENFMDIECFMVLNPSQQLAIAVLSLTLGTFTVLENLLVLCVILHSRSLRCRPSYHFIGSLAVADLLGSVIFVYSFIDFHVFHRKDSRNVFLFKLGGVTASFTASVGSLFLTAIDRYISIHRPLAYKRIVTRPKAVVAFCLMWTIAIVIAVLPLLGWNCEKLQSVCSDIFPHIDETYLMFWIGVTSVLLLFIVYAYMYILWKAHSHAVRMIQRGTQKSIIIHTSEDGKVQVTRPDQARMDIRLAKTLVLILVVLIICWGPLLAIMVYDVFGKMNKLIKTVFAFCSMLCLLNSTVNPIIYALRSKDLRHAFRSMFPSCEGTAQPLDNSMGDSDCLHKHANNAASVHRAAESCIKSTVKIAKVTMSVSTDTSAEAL
Method: Radioligand binding studies were conducted in membranes prepared from Chinese Hamster Ovary (CHO) cells that over-express recombinant human CB-1 (CHO-CB-1 cells). Total assay volume for the binding studies was 100 μl. 5 μg of membranes were brought up to a final volume of 95 μl with Binding Buffer (25 mM HEPES, 150 mM NaCl, 2.5 mM CaCl2, 1 mM MgCl2, 0.25% BSA). The diluted membranes were preincubated with a compound or DMSO vehicle. The binding reaction was initiated by the addition of 2 nM final ^3H-CP-55,940 (120 Ci/mmol) and proceeded for 2.5 hours at room temperature. The binding reaction was terminated by transferring the reaction to GF/B 96 well plates (presoaked with 0.3% polyethylenimine) using a Packard Cell Harvester. The filter was washed with 0.25 ×PBS, 30 μl MicroScint was added per well, and the bound radiolabel was quantitated by scintillation counting on a Packard TopCount Scintillation Counter. The CB-2 radioligand binding assay was conducted identically except that the membranes from CHO-CB-2 cells were used.

[1] = Canine half-life assay (IV pharmacokinetics); type: in vivo; settings: dog, plasma; male beagle dogs, IV 1 mg/kg; unit not given in table (text gives hrs)
Method: Functional canine half-life of test compounds was determined by methods […] to one of ordinary skill in the art. For example, pharmacokinetic parameters were determined in male beagle dogs (weight of 12.4, 13.2 and 8.9 kg). The intravenous (“IV”) solution dose studies were conducted in a crossover design (n=3). Animals with vascular access ports, chronically implanted in the femoral vein, were used for administration of the dose. The animals had free access to water and were conscious and unrestrained throughout the study. In the IV study, drug was infused at a dose of 1 mg/kg (1 mL/kg) in 50% PEG-400, 10% ethanol and 40% water over 10 minutes. Serial blood samples were collected from the jugular vein at 0.167, 0.25, 0.5, 0.75, 1, 2, 4, 6, 8, 24, 48 and 72 hours post-dose. Plasma was prepared immediately, and the samples were frozen on dry ice and stored at −20° C. until analysis. All samples were analyzed for the concentration of the parent drug by LC-MS/MS analysis.
The pharmacokinetic parameters were calculated by Non-Compartmental Analysis using the […]™ software program (version 4.2, InnaPhase Co., Philadelphia, Pa.). The AUCO-Tlast and AUCtot values were calculated using the trapezoidal summations. The elimination half-life (T1/2) was calculated from the terminal, linear portion of the plasma concentration-time data curve. The total clearance (CLplasma), mean residence time (MRT), and the steady state volume of distribution (Vss) were also calculated after intravenous administration. The total blood clearance (CLblood) was calculated by using the total plasma clearance and the blood to plasma concentration ratio. All results are expressed as mean±SD, unless specified otherwise.

[2] = Thermodynamic equilibrium aqueous solubility assay; type: physicochemical; settings: thermodynamic from solid, room temperature, default 50 mM pH 6.5 potassium phosphate buffer
Method: • Assay Name: Thermodynamic Equilibrium Aqueous Solubility Assay • Description: The purpose of this assay is to provide a medium throughput estimation of the thermodynamic equilibrium aqueous solubility of compounds at room temperature. Solvent system default is 50 mM pH 6.5 potassium phosphate buffer. Detailed Protocol:
Standards Preparation—The calibration standard is prepared by accurately weighing 0.5-0.7 mg of sample in 5 ml of methanol. […] A serial dilution is performed on the standard solution.
The final saturated solution is prepared by adding 1.0 ml of the appropriate aqueous solvent to the remaining portion of material (1 dram submission vial). The solution is sonicated and vortexed for ˜30 seconds. The sample solution is placed on an orbiter that continually agitates the sample solutions for 15-24 hours at room temperature. The final saturated solution is then transferred to a 1.5 ml eppendorf tube and centrifuged for ˜2 min. at 10000 rpms. The supernatant from the saturated solution is transferred to a glass HPLC-suitable vial without filtering since the […] is insufficient to saturate the syringe filter. This sample preparation procedure nullifies the effects of non-specific binding to the filtering apparatus.
The standards and sample are analyzed by HPLC using either UV/Vis diode array or variable wavelength detection. Typical quantitation wavelengths are 210 or 254 nm; detection wavelength can be individually customized to optimize sensitivity. In addition to UV detection, mass spectrometry detection is recommended if available in order to confirm the identity of the HPLC-UV peak of interest.
Dilutions of aqueous test solutions are performed if HPLC-UV peak is beyond the linear portion of the standard calibration curve. Typical dilutions include 100 ul/900 ul (×10) or 500 ul/500 ul (2 ×), as required.

[3] = 16 week trial period, Phase IIb; cited from earlier work

Row | SMILES | Ki (recombinant human CB-1) [nM] | half-life [1] [h] | solubility [2] [µg/mL] | body weight in human subjects [3]
1 | COCc1nnc2c(-c3ccc(Cl)cc3)c(-c3ccc(C#N)cc3)c(=O)n(Cc3ccc(C(F)(F)F)nc3C)n12 [Example 2, 4-(8-(4-chlorophenyl)-3-(methoxymethyl)-5-((2-methyl-6-(trifluoromethyl)pyridin-3-yl)methyl)-6-oxo-5,6-dihydro-[1,2,4]triazolo[4,3-b]pyridazin-7-yl)benzonitrile] | 5 | 23 | 6 (≈ 10.6 µM) | 
2 | Cc1nc(C(F)(F)F)ccc1Cn1c(=O)c(-c2ccc(C#N)cc2)c(-c2ccc(Cl)cc2)c2nnc(CO)n21 [Example 3, 4-(8-(4-chlorophenyl)-3-(hydroxymethyl)-5-((2-methyl-6-(trifluoromethyl)pyridin-3-yl)methyl)-6-oxo-5,6-dihydro-[1,2,4]triazolo[4,3-b]pyridazin-7-yl)benzonitrile] | 3 | 20 | 15 (≈ 27.2 µM) | 
3 | Cc1nc(C(F)(F)F)ccc1Cn1c(=O)c(-c2ccc(C#N)cc2)c(-c2ccc(Cl)cc2)c2nnc([C@@H](C)O)n21 [Example 4, (R)-4-(8-(4-chlorophenyl)-3-(1-hydroxyethyl)-5-((2-methyl-6-(trifluoromethyl)pyridin-3-yl)methyl)-6-oxo-5,6-dihydro-[1,2,4]triazolo[4,3-b]pyridazin-7-yl)benzonitrile] | 15 |  | 10 (≈ 17.7 µM) | 
4 | Cc1nc(C(F)(F)F)ccc1Cn1c(=O)c(-c2ccc(C#N)cc2)c(-c2ccc(Cl)cc2)c2nnc([C@H](C)O)n21 [Example 5, (S)-4-(8-(4-chlorophenyl)-3-(1-hydroxyethyl)-5-((2-methyl-6-(trifluoromethyl)pyridin-3-yl)methyl)-6-oxo-5,6-dihydro-[1,2,4]triazolo[4,3-b]pyridazin-7-yl)benzonitrile] | 10 |  |  | 
5 | Cc1nc(C(F)(F)F)ccc1Cn1c(=O)c(-c2ccc(C#N)cc2)c(-c2ccc(Cl)cc2)c2nnc(CN(C)C)n21 [Example 10, 4-(8-(4-chlorophenyl)-3-((dimethylamino)methyl)-5-((2-methyl-6-(trifluoromethyl)pyridin-3-yl)methyl)-6-oxo-5,6-dihydro-[1,2,4]triazolo[4,3-b]pyridazin-7-yl)benzonitrile] | 13 |  | 2 (≈ 3.46 µM) | 
6 | Cc1nc(C(F)(F)F)ccc1Cn1c(=O)c(-c2ccc(C#N)cc2)c(-c2ccc(Cl)cc2)c2nnc(CN)n21 [Example 11, 4-(3-(aminomethyl)-8-(4-chlorophenyl)-5-((2-methyl-6-(trifluoromethyl)pyridin-3-yl)methyl)-6-oxo-5,6-dihydro-[1,2,4]triazolo[4,3-b]pyridazin-7-yl)benzonitrile] | 11 |  |  | 
7 | Cc1nc(C(F)(F)F)ccc1Cn1c(=O)c(-c2ccccc2)c(-c2ccc(Cl)cc2)c2nnc(CN)n21 [Example 12] | 8 |  | 101 (≈ 192 µM) | 
8 | Cc1ccc(-c2c(-c3ccc(Cl)cc3)c3nnc(CN)n3n(Cc3ccc(C(F)(F)F)nc3C)c2=O)cc1 [Example 13] | 3 |  | 20 (≈ 37.1 µM) | 
9 | CNCc1nnc2c(-c3ccc(Cl)cc3)c(-c3ccccc3)c(=O)n(Cc3ccc(C(F)(F)F)nc3C)n12 [Example 14] | 10 |  | 25 (≈ 46.4 µM) | 
10 | Cc1nc(C(F)(F)F)ccc1Cn1c(=O)c(-c2ccc(Cl)cc2)c(-c2ccc(Cl)cc2)c2nnc(CN)n21 [Example 15] | 12 |  | 16 (≈ 28.6 µM) | 
11 | Cc1ccc(-c2c(-c3ccc(Cl)cc3)c3nnc([C@H](C)N)n3n(Cc3ccc(C(F)(F)F)nc3C)c2=O)cc1 [Example 16] | 6 |  | 38 (≈ 68.7 µM) | 
12 | Cc1ccc(-c2c(-c3ccc(Cl)cc3)c(=O)n(Cc3ccc(C(F)(F)F)nc3C)n3c(CN)nnc23)cc1 [Example 17] | 20 |  | 31 (≈ 57.5 µM) | 
13 | Cc1ccc(-c2c(-c3ccc(Cl)cc3)c(=O)n(Cc3ccc(C(F)(F)F)nc3C)n3c([C@H](C)O)nnc23)cc1 [Example 18, (S)-7-(4-chlorophenyl)-3-(1-hydroxyethyl)-5-((2-methyl-6-(trifluoromethyl)pyridin-3-yl)methyl)-8-p-tolyl-[1,2,4]triazolo[4,3-b]pyridazin-6(5H)-one] | 14 |  | 7 (≈ 12.6 µM) | 
14 | Cc1ccc(-c2c(-c3ccc(Cl)cc3)c3nnc([C@H](C)O)n3n(Cc3ccc(C(F)(F)F)nc3C)c2=O)cc1 [Example 19, (S)-8-(4-chlorophenyl)-3-(1-hydroxyethyl)-5-((2-methyl-6-(trifluoromethyl)pyridin-3-yl)methyl)-7-p-tolyl-[1,2,4]triazolo[4,3-b]pyridazin-6(5H)-one] | 5 |  | 7 (≈ 12.6 µM) | 
15 | Cc1nc(C(F)(F)F)ccc1Cn1c(=O)c(-c2ccccc2)c(-c2ccc(Cl)cc2)c2nnc([C@H](C)O)n21 [Example 20, (S)-8-(4-chlorophenyl)-3-(1-hydroxyethyl)-5-((2-methyl-6-(trifluoromethyl)pyridin-3-yl)methyl)-7-phenyl-[1,2,4]triazolo[4,3-b]pyridazin-6(5H)-one] | 6 |  | 22 (≈ 40.7 µM) | 
16 | Cc1nc(C(F)(F)F)ccc1Cn1c(=O)c(-c2ccccc2)c(-c2ccc(Cl)cc2)c2nnc([C@@H](C)O)n21 [Example 21, (R)-8-(4-chlorophenyl)-3-(1-hydroxyethyl)-5-((2-methyl-6-(trifluoromethyl)pyridin-3-yl)methyl)-7-phenyl-[1,2,4]triazolo[4,3-b]pyridazin-6(5H)-one] | 27 |  | 31 (≈ 57.4 µM) | 
17 | COCc1nnc2c(-c3ccc(Cl)cc3)c(-c3ccccc3)c(=O)n(Cc3ccc(C(F)(F)F)nc3C)n12 [Example 22, 8-(4-chlorophenyl)-3-(methoxymethyl)-5-((2-methyl-6-(trifluoromethyl)pyridin-3-yl)methyl)-7-phenyl-[1,2,4]triazolo[4,3-b]pyridazin-6(5H)-one] | 3 | 39 | 4 (≈ 7.41 µM) | 
18 | Cc1c(C(=O)NN2CCCCC2)nn(-c2ccc(Cl)cc2Cl)c1-c1ccc(Cl)cc1 [SR-141716] |  |  |  | dose-dependently reduced body weight
